Reference: US20240197735A1, “METHODS AND COMPOSITIONS COMPRISING A BRAF INHIBITOR AND A PD-1 BINDING ANTAGONIST” (Hoffmann-La Roche Inc., priority 2021, published 2024)

What was measured:
[1] = target: C-terminal Src kinase (CSK) (Homo sapiens (Human), UniProt P41240); experiment: Kd affinity for C-terminal Src kinase (selectivity); type: binding
CRAF = CRAF (Homo sapiens (Human), UniProt P04049); experiment: Kd affinity for CRAF kinase; type: binding
BRAF V600E = BRAF V600E (Homo sapiens (Human), UniProt P15056, V600E); experiment: Kd affinity for BRAF V600E kinase; type: binding
Chain of BRAF V600E (P15056 whole entry V600E): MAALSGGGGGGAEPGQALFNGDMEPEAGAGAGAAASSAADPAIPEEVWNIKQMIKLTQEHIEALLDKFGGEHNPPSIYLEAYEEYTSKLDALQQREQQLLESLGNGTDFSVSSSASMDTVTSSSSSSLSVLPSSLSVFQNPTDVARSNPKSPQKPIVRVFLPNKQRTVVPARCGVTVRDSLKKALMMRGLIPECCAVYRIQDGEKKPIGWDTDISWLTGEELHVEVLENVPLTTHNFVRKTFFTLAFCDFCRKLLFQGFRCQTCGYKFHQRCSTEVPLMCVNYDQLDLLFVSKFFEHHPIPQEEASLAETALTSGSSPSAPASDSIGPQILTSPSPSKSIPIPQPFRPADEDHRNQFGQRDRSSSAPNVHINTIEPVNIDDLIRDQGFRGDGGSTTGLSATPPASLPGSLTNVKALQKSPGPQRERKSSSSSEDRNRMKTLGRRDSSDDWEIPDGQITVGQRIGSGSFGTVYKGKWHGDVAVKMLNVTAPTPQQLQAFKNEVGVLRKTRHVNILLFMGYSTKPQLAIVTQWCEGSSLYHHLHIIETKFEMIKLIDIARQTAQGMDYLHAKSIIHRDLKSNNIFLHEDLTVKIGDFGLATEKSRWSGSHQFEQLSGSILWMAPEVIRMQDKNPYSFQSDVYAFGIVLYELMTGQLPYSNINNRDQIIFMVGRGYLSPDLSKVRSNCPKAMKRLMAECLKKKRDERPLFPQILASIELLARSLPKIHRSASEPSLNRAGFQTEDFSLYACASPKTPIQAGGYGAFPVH

[2] = system: P-ERK in HCT116 cells expressing WT BRAF; experiment: HTRF assay for P-ERK determination in HCT116 cells (paradoxical BRAF activation); type: cell-based; conditions: HCT-116 cells; for EC50: read-out: p-ERK EC50 (nM) conc. (nM) at which the compound induces P-ERK activation of 50% of that induced by dabrafenib (Positive control paradox inducer) HCT-116, 1 hour drug incubation, not applicable if activation does not reach 50% of dabrafenib maximum; for Percentage of Maximum paradox inducing effect from dabrafenib: maximum P-ERK signal as percentage of highest dabrafenib signal within dose range tested
Protocol: (§1) A375 is a cellular cancer model expressing V600E mutated BRAF and HCT116 a cellular cancer model expressing WT BRAF. […] ERK 1,2 phosphorylation (terminal member of the phosphorylation cascade of the MAPK pathway) is hereafter reported as main readout for the activation status of the MAPK pathway. Prior to the assay, A375 and HCT116 cell lines are maintained in DMEM no-phenol red medium supplemented with 10% fetal bovine serum (FBS). […] Briefly, 8000 cells/well in 12 μl media/well are plated in the 384-well plate and left overnight in the incubator (at 37° C. with 5% CO2-humidified atmosphere), the following day the plate is treated in duplicate with test compounds, dabrafenib and PLX8394 (the latter two as controls) at the following final drug concentrations: 10 μM-3 μM-1 μM-0.3 μM-0.1 μM-0.03 μM-0.01 μM-0.003 μM-0.001 μM, all wells are subjected to DMSO normalization and drug incubation occurs for 1 hour. Then, 4 μl of a 4× lysis buffer supplied with the kit are added to the wells, the plate is then centrifuged for 30 second (300 rcf) and incubated on a plate shaker for 1 h at RT.
(§2) At the end of the incubation 4 μL/well of advanced P-ERK antibody solution (prepared according to manufacturer's instruction) followed by 4 μL/well of criptate P-ERK antibody solution (prepared according to manufacturer's instruction) (Cisbio cat #64AERPEH) are added to test wells.
(§3) In order to allow proper data normalization control wells without drug treatment reported are always included in each plate (according to manufacturer's instruction):
(§4) The plate is then centrifuged at 300 rcf for 30 second, sealed to prevent evaporation and incubated overnight in the dark at room temperature.
The plate is then analyzed and fluorescence emission value collected through a Pherastast FSX (BMG Labtech) apparatus at […].
(§5) The obtained fluorescence values are processed according to the formula Ratio=[…]*10000 then the average of the ratio on the blank is subtracted to all values.
Individual points are fitted with either sigmoidal or bell shape curves, and the percentage of activation compared to maximum dabrafenib-mediated activation is determined. The EC50 is the concentration at which activation equal to 50% of the maximum achieved by dabrafenib is obtained.
The Percentage of Maximum paradox inducing effect from dabrafenib is determined by evaluating the percentage at which the test compound induce its maximum P-ERK signal as percentage of the highest signal produced by dabrafenib within the dose range tested.

BRAF = BRAF (Homo sapiens (Human), UniProt P15056); experiment: Kd affinity for BRAF kinase; type: binding
Chain of BRAF (P15056 whole entry): as the sequence (P15056 whole entry V600E) above, with E600V counted along it

[3] = target: lymphocyte-specific tyrosine protein kinase (LCK) (Homo sapiens (Human), UniProt P06239); experiment: Kd affinity for lymphocyte-specific tyrosine protein kinase (selectivity); type: binding
Chain of lymphocyte-specific tyrosine protein kinase (LCK) (P06239 whole entry): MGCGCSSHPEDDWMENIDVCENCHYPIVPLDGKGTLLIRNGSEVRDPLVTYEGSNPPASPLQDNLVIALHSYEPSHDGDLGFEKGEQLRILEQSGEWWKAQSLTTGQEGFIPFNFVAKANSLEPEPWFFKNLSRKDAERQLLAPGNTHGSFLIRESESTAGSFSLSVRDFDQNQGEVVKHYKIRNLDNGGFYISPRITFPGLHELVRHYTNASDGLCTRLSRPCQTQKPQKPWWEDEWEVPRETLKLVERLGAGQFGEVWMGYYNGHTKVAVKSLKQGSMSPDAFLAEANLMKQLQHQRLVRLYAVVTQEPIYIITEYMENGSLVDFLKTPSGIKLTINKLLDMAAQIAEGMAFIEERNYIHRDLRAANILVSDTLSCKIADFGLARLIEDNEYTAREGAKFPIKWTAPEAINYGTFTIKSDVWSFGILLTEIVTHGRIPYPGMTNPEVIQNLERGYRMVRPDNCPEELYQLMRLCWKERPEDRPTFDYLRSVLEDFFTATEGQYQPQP

[4] = system: P-ERK in A375 cells expressing V600E mutated BRAF; experiment: HTRF assay for P-ERK determination in A375 cells (BRAF inhibition); type: cell-based; conditions: Homo sapiens, A-375, 1 h, read-out: pERK IC50 (nM) A375
Protocol: as §1, §2, §3, §4, §5
Mean of the normalized points are fitted with sigmoidal curve and IC50 determined.

[5] = system: YUMM1.7 tumors, immune cell infiltrate (mCD45, mCD3); experiment: Immuno-phenotyping of YUMM1.7 tumors by flow cytometry and IHC; type: in vivo, mouse (C57/BL6)
Protocol: FIG. 6 reports the total immune cell (top) and T-cell (bottom) infiltrates in tumors, as quantified through flow cytometry. Total immune cell infiltrate was expressed as percentage of mCD45 positive with respect to the alive cells at day 3 and day 6, and T-cell infiltrate expressed in mCD3 positive cells per mm2.
FIG. 7 reports the immunohistochemistry analysis of the mouse immune cell marker CD45 of tumors treated for 3 days with either Vehicle, Compound Ia at 5 mg/kg (daily), mPD1 at 12.5 mg/kg (single treatment) or a combination thereof.
For the immunohistochemical analysis, female C57/BL6 mice were injected subQ with YUMM1.7 cells. When tumors reached around 250 mm^3 (day 14) mice were treated with either Compound Ia at 1 or 5 mg/kg daily (oral administration), with anti-mouse PD1 at 12.5 mg/kg once (single intraveneous administration) or the combination of Compound Ia and anti-mPD1. Mice were sacrificed and tumors collected upon 3 or five days from the beginning of the treatment and tumors were either digested and utilized for cytofluorimetric analysis of fixed and paraffin embedded.

[6] = system: YUMM1.7 tumors (BRAF V600E); experiment: In vivo antitumor activity on YUMM1.7 syngeneic allograft tumors; set-up: species or system mouse (C57BL/6); conditions: combination of Compound Ia (1 or 5 mg/kg PO QD) and mouse anti PD-1 antibody (IV once a week); monitored until day 58
Protocol: Mice were treated until day 31 and afterwards drug treatments were suspended and mice were monitored for evidences of tumor regrowth.
Mice were treated until day 45 and afterwards drug treatments were suspended and mice were monitored for evidences of tumor regrowth.
In the in vivo studies, female mice 7-9 weeks old (at experiment initiation) of the immunocompetent strain C57BL/6 were utilized. The experiment was performed at the Contract Research Organization (CRO) Covance that sourced mice, performed tumor establishment, drug treatment and tumor monitoring.
For xenograft establishment YUMM1.7 cells were suspended in a media composed of 50% Matrigel and 50% Hank's balanced Salt Solution and injected subcutaneously on the right flanks. When tumor volume reached around 100 mm^3 mice were randomized prior treatment.
Mice were implanted with the cell line YUMM1.7 harboring the BRAF V600E mutation. Upon tumor establishment (100 mm3) mice were randomized and received orally (PO) once per day (QD) either Compound Ia (1 mg/kg or 5 mg/kg), mouse anti PD-1 antibody through IV injection, once a week or the respective combinations of PD-1 and Compound Ia at 1 or 5 mg/kg. […] Upon treatment conclusion mice were monitored until day 58 for signs of tumor relapse.

[7] = system: P-ERK in A375 BRAF V600E NRAS Q61K cells; experiment: P-ERK levels in first generation BRAFi resistant cell model A375 BRAF V600E NRAS Q61K; type: cell-based

Chain of CRAF (P04049 whole entry): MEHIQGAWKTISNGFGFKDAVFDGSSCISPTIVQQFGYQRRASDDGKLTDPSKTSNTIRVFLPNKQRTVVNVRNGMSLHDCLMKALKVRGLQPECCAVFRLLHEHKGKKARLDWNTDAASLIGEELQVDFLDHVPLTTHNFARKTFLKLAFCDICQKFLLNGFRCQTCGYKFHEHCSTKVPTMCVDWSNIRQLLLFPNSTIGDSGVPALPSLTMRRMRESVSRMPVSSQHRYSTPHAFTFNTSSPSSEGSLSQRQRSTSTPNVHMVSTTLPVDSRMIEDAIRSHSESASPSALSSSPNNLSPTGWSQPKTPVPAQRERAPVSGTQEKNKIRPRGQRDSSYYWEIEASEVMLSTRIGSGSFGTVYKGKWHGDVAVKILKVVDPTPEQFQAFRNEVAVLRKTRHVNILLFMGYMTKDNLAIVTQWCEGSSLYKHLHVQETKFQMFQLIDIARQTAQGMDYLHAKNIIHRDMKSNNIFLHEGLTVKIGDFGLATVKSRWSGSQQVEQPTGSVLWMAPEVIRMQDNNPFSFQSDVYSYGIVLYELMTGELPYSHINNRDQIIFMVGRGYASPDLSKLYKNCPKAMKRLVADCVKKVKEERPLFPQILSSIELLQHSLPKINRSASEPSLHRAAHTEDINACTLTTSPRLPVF
Chain of C-terminal Src kinase (CSK) (P41240 whole entry): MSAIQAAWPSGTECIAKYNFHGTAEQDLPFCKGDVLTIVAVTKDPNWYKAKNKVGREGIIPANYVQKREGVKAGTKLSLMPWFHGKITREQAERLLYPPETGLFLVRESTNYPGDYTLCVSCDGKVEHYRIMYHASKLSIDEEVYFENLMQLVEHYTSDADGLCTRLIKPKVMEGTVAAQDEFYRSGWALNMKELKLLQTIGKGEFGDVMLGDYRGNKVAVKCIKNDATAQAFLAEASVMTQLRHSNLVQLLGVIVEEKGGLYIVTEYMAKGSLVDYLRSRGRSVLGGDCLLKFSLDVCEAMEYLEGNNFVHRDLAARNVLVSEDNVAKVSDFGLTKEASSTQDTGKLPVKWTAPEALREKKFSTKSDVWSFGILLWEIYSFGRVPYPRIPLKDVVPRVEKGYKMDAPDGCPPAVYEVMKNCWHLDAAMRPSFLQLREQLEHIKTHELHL

| Structure (SMILES) | Kd [1] | Kd (CRAF) | Kd (BRAF V600E) | EC50 [2] | Kd (BRAF) | Kd [3] | IC50 [4] | Percentage of Maximum paradox inducing effect from dabrafenib [2] | antitumor response ([5]; YUMM1.7 tumors, Compound Ia oral daily) | recruitment of inflammatory infiltrate in tumors ([5]; flow cytometry and IHC data) | number of mice showing disease relapse [6] | P-ERK reduction in combination with MEKi cobimetinib ([7]; combination with cobimetinib at fixed dose of 10 nM, compared with encorafenib/binimetinib) | P-ERK inhibition as single agent ([7]; single agent, compared with Encorafenib) |
| --- | --- | --- | --- | --- | --- | --- | --- | --- | --- | --- | --- | --- | --- |
| CCCS(=O)(=O)Nc1ccc(F)c(Oc2ccc3ncn(C)c(=O)c3c2)c1C#N [AR-25] | > 40000 nM | 0.3 nM | 0.2 nM | 9.6 nM | 0.1 nM | > 40000 nM | 1.1 nM | – | – | – | – | – | – |
| CN(C)S(=O)(=O)Nc1ccc(Cl)c(Nc2ccc3ncn(C)c(=O)c3c2)c1F [AR-30] | 8010 nM | 822 nM | 504 nM | > 1000 nM | 174 nM | 10400 nM | 406 nM | 59% | – | – | – | – | – |
| Cn1cnc2ccc(Nc3c(Cl)ccc(NS(=O)(=O)N4CCCC4)c3F)cc2c1=O [AR-31] | 1210 nM | 190 nM | 119 nM | > 1000 nM | 45.9 nM | 12000 nM | 311 nM | 51.2% | – | – | – | – | – |
| Cn1cnc2ccc(Oc3c(F)ccc(NS(=O)(=O)N4CC[C@@H](F)C4)c3C#N)cc2c1=O [Ex. 1, (3R)-N-[2-cyano-4-fluoro-3-(3-methyl-4-oxo-quinazolin-6-yl)oxy-phenyl]-3-fluoro-pyrrolidine-1-sulfonamide] | – | – | – | – | – | – | – | 43.65% | robust antitumor response | triggers recruitment of inflammatory infiltrate | strong impact | superior P-ERK reduction | potent P-ERK inhibition |
